The values below come from US20250381157A1, “ANTIMICROBIAL COMPOUNDS” (priority 2022, published 2025).

Data set [1] in a line: Stability SGD, SIF w. Enzymes. The format is in vitro ADME.
The nature of another data set: Plasma stability Rat. It counts as in vitro ADME.
For another data set, the target named is T1, recombinant human HDAC5 (Homo sapiens, UniProt Q9UQL6).
T1 construct: purchased BPS 50005
As to the kind of experiment: HDAC5 in-vitro enzymatic assay. The format is biochemical. How it is done: All of the compounds were dissolved in DMSO. A series of dilutions of the compounds were prepared with 10% DMSO in HDAC assay buffer and 5 μl of the dilution was added to a 50 μl reaction so that the final concentration of DMSO was 1% in all of reactions. The compounds were pre-incubated in duplicate at RT for 30 minutes in a mixture containing HDAC assay buffer, 5 μg BSA, HDAC enzyme and a test compound. After 30 minutes, the enzymatic reactions were initiated by the addition of HDAC substrate to a final concentration of 20 μM or 2 μM. The enzymatic reaction proceeded for 30 minutes at 37° C. After enzymatic reactions, 50 μl of 2×HDAC Developer was added to each well for the HDAC enzymes and the plate was incubated at room temperature for an additional 15 minutes. Fluorescence intensity was measured at an excitation of 360 nm and an emission of 460 nm using a Tecan Infinite M1000 microplate reader.
HDAC activity assays were performed in duplicates at each concentration. The fluorescent intensity data were analyzed using the computer software, Graphpad Prism. […] The percent activity in the presence of each compound was calculated according to the following equation: % activity=(F−Fb)/(Ft−Fb), where F=the fluorescent intensity in the presence of the compound. […] The IC50 value was determined by the concentration causing a half-maximal percent activity.

T1 sequence (Q9UQL6 whole entry): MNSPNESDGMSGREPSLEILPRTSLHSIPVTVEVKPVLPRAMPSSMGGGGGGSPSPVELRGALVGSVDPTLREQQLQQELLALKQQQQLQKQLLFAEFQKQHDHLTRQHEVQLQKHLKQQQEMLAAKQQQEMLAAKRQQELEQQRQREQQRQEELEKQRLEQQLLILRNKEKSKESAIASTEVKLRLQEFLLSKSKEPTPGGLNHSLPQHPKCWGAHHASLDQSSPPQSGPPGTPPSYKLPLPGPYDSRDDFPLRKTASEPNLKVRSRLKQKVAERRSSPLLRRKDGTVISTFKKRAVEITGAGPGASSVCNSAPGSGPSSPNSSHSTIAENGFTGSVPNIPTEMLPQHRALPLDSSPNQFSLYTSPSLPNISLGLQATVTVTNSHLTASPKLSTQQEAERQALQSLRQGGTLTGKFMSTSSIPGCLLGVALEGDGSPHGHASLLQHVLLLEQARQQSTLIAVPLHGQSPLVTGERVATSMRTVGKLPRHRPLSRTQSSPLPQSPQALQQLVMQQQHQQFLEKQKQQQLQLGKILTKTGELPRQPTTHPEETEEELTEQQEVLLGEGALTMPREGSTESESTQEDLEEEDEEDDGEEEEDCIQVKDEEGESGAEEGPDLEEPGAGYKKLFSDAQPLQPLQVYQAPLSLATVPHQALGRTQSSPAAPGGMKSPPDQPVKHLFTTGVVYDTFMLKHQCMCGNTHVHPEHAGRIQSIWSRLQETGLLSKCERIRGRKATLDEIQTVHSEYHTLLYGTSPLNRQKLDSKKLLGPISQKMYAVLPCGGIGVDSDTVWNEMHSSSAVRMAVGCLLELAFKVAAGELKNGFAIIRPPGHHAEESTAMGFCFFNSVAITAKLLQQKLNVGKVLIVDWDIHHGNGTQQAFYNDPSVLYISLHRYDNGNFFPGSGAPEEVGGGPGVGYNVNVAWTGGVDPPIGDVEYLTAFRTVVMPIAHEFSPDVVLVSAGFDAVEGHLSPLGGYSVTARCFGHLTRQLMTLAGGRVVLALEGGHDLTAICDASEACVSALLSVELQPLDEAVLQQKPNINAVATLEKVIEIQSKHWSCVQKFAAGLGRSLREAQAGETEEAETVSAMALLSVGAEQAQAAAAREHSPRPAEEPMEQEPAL

On to `C#CCOCC(=O)Nc1ccc(C(=O)Nc2ccccc2N)cc1` [Compound 1, N-(2-aminophenyl)-4-{2-[(prop-2-yn-1-yl)oxy]acetamido}benzamide], for which the “Stability SGD, SIF w. Enzymes” value in data set [1] is recorded as “High”. Besides, the “Plasma stability Rat” value in “Plasma stability Rat” is reported as “High”. The IC50 (as a rule, the concentration needed to halve the response being measured) at recombinant human HDAC5 was over 200 µM. Besides, at recombinant human HDAC5 (@ 200 μM), the “Inhib. HDAC5” value is on record as “No Inhib. @ 200 μM”.
